Measurements reported in ChEMBL document CHEMBL3525943, “Regiospecific and stereospecific triangulation of the structures of metabolites formed by sequential metabolism at multiple prochiral centers” (Drug Metab Dispos, 2012).

Assays:
[1] = Drug excretion in female Sprague-Dawley rat feces treated with [14C]-AMG 221 at 2 mg/kg, po measured over 24 hrs by LC-MS/HPLC radiometric analysis; assay type: ADME, organism-based; parameters: dose 2 mg/kg, route oral; conditions: in vivo
[2] = Retention time of the compound in urine of bile duct cannulated Sprague-Dawley rat treated with [14C]-(S)-2-((1R,2S,4R,5S)-5-hydroxybicyclo[2.2.1]heptan-2-ylamino)-5-isopropyl-5-methylthiazol-4(5H)-one at 5 mg/kg, po measured over 48 hrs by LC-MS/HPLC radiometric analysis; assay type: ADME, organism-based; parameters: dose 5 mg/kg, route oral; conditions: in vivo
[3] = Drug excretion in male Sprague-Dawley rat urine treated with [14C]-AMG 221 at 2 mg/kg, po measured over 24 hrs by LC-MS/HPLC radiometric analysis; assay type: ADME, organism-based; parameters: dose 2 mg/kg, route oral; conditions: in vivo
[4] = Drug excretion in female Sprague-Dawley rat urine treated with [14C]-AMG 221 at 2 mg/kg, po measured over 24 hrs by LC-MS/HPLC radiometric analysis; assay type: ADME, organism-based; parameters: dose 2 mg/kg, route oral; conditions: in vivo
[5] = Drug excretion in male Sprague-Dawley rat feces treated with [14C]-AMG 221 at 2 mg/kg, po measured over 24 hrs by LC-MS/HPLC radiometric analysis; assay type: ADME, organism-based; parameters: dose 2 mg/kg, route oral; conditions: in vivo
Rattus norvegicus = assay: Total drug recovery in female Sprague-Dawley rat treated with [14C]-AMG 221 at 2 mg/kg, po measured over 48 hrs by liquid scintillation counting analysis; assay type: ADME, organism-based; parameters: dose 2 mg/kg, route oral; conditions: in vivo
[6] = Retention time of the compound in Beagle dog urine treated with [14C]-AMG 221 at 2 mg/kg, po measured over 24 hrs by LC-MS/HPLC radiometric analysis; assay type: ADME, organism-based, Canis lupus familiaris; parameters: dose 2 mg/kg, route oral; conditions: in vivo
[7] = Retention time of the compound in Sprague-Dawley rat urine treated with [14C]-AMG 221 at 2 mg/kg, po measured over 24 hrs by LC-MS/HPLC radiometric analysis; assay type: ADME, organism-based; parameters: dose 2 mg/kg, route oral; conditions: in vivo
[8] = Retention time of the compound in Sprague-Dawley rat urine treated with [14C]-AMG 221 at 2 mg/kg, po after 12 hrs by LC-MS/HPLC radiometric analysis; assay type: ADME, organism-based; parameters: dose 2 mg/kg, route oral; conditions: in vivo
Liver microsome [9] = assay: Retention time of the compound in rat liver microsomes treated with (S)-2-((1S,2S,4R)-bicyclo[2.2.1]heptan-2-ylamino)-5-((S)-1-hydroxypropan-2-yl)-5-methylthiazol-4(5H)-one at 20 uM preincubated for 5 mins followed by NADPH addition measured after 60 mins by LC-MS/MS analysis; assay type: ADME; conditions: 1 h
Liver microsome [10] = assay: Retention time of the compound in rat liver microsomes treated with [14C]-(S)-2-((1R,2S,4R,5S)-5-hydroxybicyclo[2.2.1]heptan-2-ylamino)-5-isopropyl-5-methylthiazol-4(5H)-one at 40 uM preincubated for 5 mins followed by NADPH addition measured after 60 mins by LC-MS/MS-radiometric analysis; assay type: ADME; conditions: 1 h
[11] = Volume of distribution at steady state in rat; assay type: ADME, organism-based; conditions: in vivo, read-out: Vdss
[12] = Clearance in iv dosed rat; assay type: ADME, organism-based; conditions: in vivo
[13] = Plasma protein binding in rat; assay type: ADME, cell-free; conditions: read-out: PPB (converted)
[14] = Plasma protein binding in human; assay type: ADME, cell-free; conditions: read-out: PPB (converted)
[15] = Oral bioavailability in rat; assay type: ADME, organism-based; conditions: in vivo
Liver microsome [16] = assay: Drug level in rat liver microsomes treated with (S)-2-((1S,2S,4R,6R)-6-hydroxybicyclo[2.2.1]heptan-2-ylamino)-5-isopropyl-5-methylthiazol-4(5H)-one at 20 uM preincubated for 5 mins followed by NADPH addition measured after 60 mins by LC-MS/MS analysis; assay type: ADME; conditions: 1 h
Liver microsome [17] = assay: Retention time of the compound in rat liver microsomes treated with ((S)-2-((1S,2S,4R)-bicyclo[2.2.1]heptan-2-ylamino)-5-(2-hydroxypropan-2-yl)-5-methylthiazol-4(5H)-one at 20 uM preincubated for 5 mins followed by NADPH addition measured after 60 mins by LC-MS/MS analysis; assay type: ADME; conditions: 1 h
[18] = Drug level in Sprague-Dawley rat urine treated with [14C]-(S)-2-((1R,2S,4R,5S)-5-hydroxybicyclo[2.2.1]heptan-2-ylamino)-5-isopropyl-5-methylthiazol-4(5H)-one at 5 mg/kg, po measured over 24 hrs by LC-MS/HPLC radiometric analysis; assay type: ADME, organism-based; parameters: dose 5 mg/kg, route oral; conditions: in vivo
[19] = Retention time of the compound in bile duct cannulated Sprague-Dawley rat bile treated with [14C]-(S)-2-((1R,2S,4R,5S)-5-hydroxybicyclo[2.2.1]heptan-2-ylamino)-5-isopropyl-5-methylthiazol-4(5H)-one at 5 mg/kg, po measured over 48 hrs by LC-MS/HPLC radiometric analysis; assay type: ADME, organism-based; parameters: dose 5 mg/kg, route oral; conditions: in vivo
Plasma [20] = assay: Retention time of the compound in Beagle dog plasma treated with [14C]-AMG 221 at 2 mg/kg, po measured at 0.5 hrs by LC-MS/HPLC radiometric analysis; assay type: ADME, organism-based, Canis lupus familiaris; parameters: dose 2 mg/kg, route oral; conditions: in vivo
Plasma [21] = assay: Retention time of the compound in Sprague-Dawley rat plasma treated with [14C]-AMG 221 at 2 mg/kg, po measured at 0.5 hrs by LC-MS/HPLC radiometric analysis; assay type: ADME, organism-based; parameters: dose 2 mg/kg, route oral; conditions: in vivo
Liver microsome [22] = assay: Retention time of the compound in rat liver microsomes treated with (S)-2-((1S,2S,4R)-bicyclo[2.2.1]heptan-2-ylamino)-5-(2-hydroxypropan-2-yl)-5-methylthiazol-4(5H)-one at 20 uM preincubated for 5 mins followed by NADPH addition measured after 60 mins by LC-MS/MS analysis; assay type: ADME; conditions: 1 h

SMILES | Drug excretion [1] [%] | Drug excretion [3] [%] | Drug excretion [4] [%] | Drug excretion [5] [%] | Drug recovery (Rattus norvegicus) [%] | Retention_time [7] [min] | further results
CC(O)(CO)[C@]1(C)SC(N[C@H]2C[C@@H]3CC[C@H]2C3)=NC1=O (stereo partly drawn) | 24 | 8.3 | 24 | 8.3 | 0.1 | – | Retention_time [6]: 31.5 min
CC(C)(O)[C@]1(C)SC(N[C@H]2C[C@H]3C[C@@H]2CC3=O)=NC1=O | – | – | – | – | – | 20.7 | –
CC(C)[C@]1(C)SC(N[C@H]2C[C@@H]3CC[C@H]2C3)=NC1=O | – | – | – | – | – | – | Vd [11]: 1 L/kg; clearance [12]: 50 mL/min/kg; fraction unbound [13]: 0.15; fraction unbound [14]: 0.15; bioavailability [15]: 30%
CC(C)(O)[C@]1(C)SC(N[C@H]2C[C@H]3C[C@@H]2[C@H](O)C3)=NC1=O | 24 | 8.3 | 24 | 8.3 | 2.4 | – | Drug metabolism (Liver microsome [16]): metabolite_detected; Retention_time (Liver microsome [17]): 16.8 min
CC(C)[C@]1(C)SC(N[C@H]2C[C@H]3C[C@@H]2CC3=O)=NC1=O | – | – | – | – | 9.1 | – | Drug metabolism [18]: metabolite_detected; Retention_time [8]: 33.3 min
C[C@H](C(=O)O)[C@]1(C)SC(N[C@H]2C[C@@H]3CC[C@H]2C3)=NC1=O | – | – | – | – | – | 25.8 | –
CC(C)[C@]1(C)SC(N[C@H]2C[C@H]3C[C@@H]2C[C@H]3O[C@@H]2O[C@H](C(=O)O)[C@@H](O)[C@H](O)[C@H]2O)=NC1=O | – | – | – | – | 0.2 | – | Retention_time [19]: 25.2 min
C=C(C)[C@]1(C)SC(N[C@H]2C[C@@H]3CC[C@H]2C3)=NC1=O | – | – | – | – | – | – | Retention_time (Plasma [20]): 40.7 min
C=C(C)[C@]1(C)SC(N[C@H]2C[C@H]3C[C@@H]2[C@H](O)C3)=NC1=O | – | – | – | – | 0.1 | – | Retention_time [6]: 29.9 min
CC(C)(O)[C@]1(C)SC(N[C@H]2C[C@@H]3CC[C@H]2C3)=NC1=O | 37 | 29 | 37 | 29 | 0.9 | – | Retention_time (Plasma [21]): 38.5 min
C[C@@H](C(=O)O)[C@]1(C)SC(N[C@H]2C[C@@H]3CC[C@H]2C3)=NC1=O | – | – | – | – | 0.5 | – | Retention_time [6]: 35.7 min
CC(CO[C@@H]1O[C@H](C(=O)O)[C@@H](O)[C@H](O)[C@H]1O)[C@]1(C)SC(N[C@H]2C[C@@H]3CC[C@H]2C3)=NC1=O (stereo partly drawn) | – | – | – | – | 0.1 | – | Retention_time [6]: 27.8 min

Now from value to molecule, other results behind:

Drug excretion [1] [%] | Drug excretion [3] [%] | Drug excretion [4] [%] | Drug excretion [5] [%] | Drug recovery (Rattus norvegicus) [%] | Retention_time [7] [min] | SMILES | further results
24 | 8.3 | 24 | 8.3 | 0.1 | – | C[C@@H](CO)[C@]1(C)SC(N[C@H]2C[C@H]3C[C@@H]2C[C@H]3O)=NC1=O | Retention_time [2]: 12.8 min
24 | 8.3 | 24 | 8.3 | 0.1 | 19.2 | CC(C)[C@]1(C)SC(N[C@H]2C[C@H]3C[C@@H]2[C@H](O)[C@@H]3O)=NC1=O | –
24 | 8.3 | 24 | 8.3 | 0.2 | 8.5 | C[C@H](CO)[C@]1(C)SC(N[C@H]2C[C@H]3C[C@@H]2C[C@H]3O)=NC1=O | –
37 | 29 | 37 | 29 | 3.2 | – | CC(C)[C@]1(C)SC(N[C@H]2C[C@H]3C[C@@H]2[C@H](O)C3)=NC1=O | Retention_time [8]: 33 min
– | – | – | – | 2.1 | 14.1 | C[C@@H](CO)[C@]1(C)SC(N[C@H]2C[C@H]3C[C@@H]2CC3=O)=NC1=O | –
24 | 8.3 | 24 | 8.3 | 2.9 | – | C[C@@H](CO)[C@]1(C)SC(N[C@H]2C[C@H]3C[C@@H]2C[C@@H]3O)=NC1=O | Retention_time (Liver microsome [9]): 11.5 min; Retention_time (Liver microsome [10]): 11.5 min
37 | 29 | 37 | 29 | 4.7 | – | CC(C)[C@]1(C)SC(N[C@H]2C[C@H]3C[C@@H]2C[C@H]3O)=NC1=O | Retention_time [8]: 30.9 min
37 | 29 | 37 | 29 | 2.6 | – | C[C@H](CO)[C@]1(C)SC(N[C@H]2C[C@@H]3CC[C@H]2C3)=NC1=O | Retention_time [8]: 34.6 min
24 | 8.3 | 24 | 8.3 | 1.2 | 7.2 | C[C@H](CO)[C@]1(C)SC(N[C@H]2C[C@H]3C[C@@H]2C[C@@H]3O)=NC1=O | Drug metabolism [18]: metabolite_detected
– | – | – | – | 0.1 | 9.2 | C[C@H](CO)[C@]1(C)SC(N[C@H]2C[C@H]3C[C@@H]2CC3=O)=NC1=O | –
24 | 8.3 | 24 | 8.3 | – | – | CC(C)(O)[C@]1(C)SC(N[C@H]2C[C@H]3C[C@@H]2C[C@H]3O)=NC1=O | Retention_time [2]: 12.8 min
24 | 8.3 | 24 | 8.3 | 0.1 | 9.9 | C[C@H](CO)[C@]1(C)SC(N[C@H]2C[C@H]3C[C@@H]2[C@H](O)C3)=NC1=O | –
24 | 17 | 24 | 17 | 24.2 | – | CC(C)[C@]1(C)SC(N[C@H]2C[C@H]3C[C@@H]2C[C@@H]3O)=NC1=O | Retention_time [8]: 30.3 min
24 | 8.3 | 24 | 8.3 | – | – | CC(C)(O)[C@]1(C)SC(N[C@H]2C[C@H]3C[C@@H]2C[C@@H]3O)=NC1=O | Retention_time (Liver microsome [22]): 11.5 min; Retention_time (Liver microsome [10]): 11.5 min
– | – | – | – | 0.8 | 27.9 | C=C(C)[C@]1(C)SC(N[C@H]2C[C@H]3C[C@@H]2C[C@@H]3O)=NC1=O | –
37 | 29 | 37 | 29 | 0.8 | – | C[C@@H](CO)[C@]1(C)SC(N[C@H]2C[C@@H]3CC[C@H]2C3)=NC1=O | Retention_time [8]: 37.5 min
